Measurements as given in US6511848B2, “Process for producing and multiplying lymphocytes” (Winfried Albert, priority 1996, dated 2003).

What was measured:
[1] = system: Mononuclear cells from peripheral blood (PBMNC); assay: Multiplication of NK and T lymphocytes from mononuclear cells of human blood in serum-free medium; format: cell-based; details: serum-free DF medium, single cytokine
Excerpt: Mononuclear cells from peripheral blood (PBMNC) of a human donor are isolated by means of gradient centrifugation (lymphocyte separation medium, Boehringer Mannheim GmbH, Germany (BM)), washed twice with phosphate-buffered saline solution and taken up in DF medium at a density of 1×10^6 cells/ml and cultured in three separate preparations which are denoted A, B and C. […] Half of the culture medium (+cytokine(s)) is renewed every second day and the cell count is adjusted to ca. 1×10^6 cells/ml during the first 7 days and subsequently to ca. […].

killer T cells = assay: Multiplication of killer T cells in serum-free DF medium; format: cell-based, human
Method: Mononuclear cells from peripheral blood (PBMNC) of human donors are isolated by means of gradient centrifugation (lymphocyte separation medium, BM), washed twice with phosphate-buffered saline solution and incubated at a density of 5-10×10^6 cells/ml DF medium according to Thiele and Lipsky (J. Immunol. 136 (1986) 1038-1048) with 250 μM leucyl-leucine-methyl ester (BM) for 20 minutes at room temperature. After washing with DF medium the cells are cultured at 37° C. in 8% CO2 atmosphere at a density of 1-2×10^6 per ml DF medium together with irradiated (2000 rad) HB654 cells or HB617 cells (stimulator cells; 2-5×10^5 per ml). On day 5-6 of the co-culture half to two thirds of the culture medium is renewed and irradiated stimulator cells (2-5×10^5 per ml) are added again. From day 8-10 after starting the co-culture, when all stimulator cells have been destroyed by the cytotoxic activity of the killer T cells, the killer T cells are used for the following examples. […]

## TGFβ1: rh TGFβ1 (BM), 4 ng/ml
[1]
  growth behaviour of the cells (in words): do not multiply

## IL-15: Human recombinant IL-15 (R & D Systems), 15 ng/ml, lymphocyte growth factor
Killer T cells; growth factor alone
  doubling cycles after which proliferation stagnates: 3 doubling cycles

## CC[C@@H]1/C=C(\C)C[C@H](C)C[C@H](OC)[C@H]2O[C@@](O)(C(=O)C(=O)N3CCCC[C@H]3C(=O)O[C@H](/C(C)=C/[C@@H]3CC[C@@H](O)[C@H](OC)C3)[C@H](C)[C@@H](O)CC1=O)[C@H](C)C[C@@H]2OC [Ascomycin, reference compound]
Killer T cells; additive alone, without growth factor
  multiplication of killer T cells (in words): no multiplication
